In ChEMBL document CHEMBL4000172, “Identification of a novel 5-amino-3-(5-cyclopropylisoxazol-3-yl)-1-isopropyl-1H-pyrazole-4-carboxamide as a specific RET kinase inhibitor” (Eur J Med Chem, 2017):

Columns and labels:
[1] = Stability in mouse liver microsomes assessed as compound remaining at 1 uM after 15 mins; assay type: ADME, microsome; conditions: read-out: Stability
[2] = Stability in rat liver microsomes assessed as compound remaining at 1 uM after 30 mins; assay type: ADME, microsome; conditions: read-out: Stability
[3] = Stability in human liver microsomes assessed as compound remaining at 1 uM after 15 mins; assay type: ADME, microsome; conditions: read-out: Stability
[4] = Stability in human liver microsomes assessed as compound remaining at 1 uM after 30 mins; assay type: ADME, microsome; conditions: read-out: Stability
[5] = Stability in rat liver microsomes assessed as compound remaining at 1 uM after 15 mins; assay type: ADME, microsome; conditions: read-out: Stability
[6] = target: T1, Proto-oncogene tyrosine-protein kinase receptor Ret (Homo sapiens, UniProt P07949); test: Inhibition of human RET using KKKSPGEYVNIEFG as peptide substrate in presence of [gamma33P]ATP by radiometric assay
[7] = Cytotoxicity against human Nthy-ori 3-1 cells assessed as reduction in cell viability by CellTiter-Glo luminescence assay; assay type: cell-based
[8] = tested on: Proto-oncogene tyrosine-protein kinase receptor Ret (Homo sapiens), P07949 [V804M]
Description: Inhibition of RET V804M mutant (unknown origin) transfected in mouse Ba/F3 cells assessed as reduction in cell viability by CellTiter-Glo luminescence assay

[9] = target: T1, Proto-oncogene tyrosine-protein kinase receptor Ret
Description: Inhibition of RET (unknown origin) transfected in mouse Ba/F3 cells assessed as reduction in cell viability by CellTiter-Glo luminescence assay

[10] = target: Proto-oncogene tyrosine-protein kinase receptor Ret (Homo sapiens, UniProt P07949, V804M); test: Inhibition of human RET V804M mutant using peptide substrate KKKVSRSGLYRSPS MPENLNRPR in presence of [gamma33P]ATP by radiometric assay
[11] = tested on: Proto-oncogene tyrosine-protein kinase receptor Ret (Homo sapiens), P07949 [C634W]
Description: Inhibition of RET C634W mutant in human TT cells assessed as reduction in cell viability by CellTiter-Glo luminescence assay

[12] = Cytotoxicity against mouse BA/F3 cells assessed as reduction in cell viability by CellTiter-Glo luminescence assay; assay type: cell-based, BaF3
[13] = Induction of apoptosis in human Nthy-ori 3-1 cells assessed as increase in cleaved PARP level at 5 to 20 uM after 48 hrs by Western blot method; assay type: cell-based; conditions: nthy-ori 3-1, 48 h
[14] = Induction of apoptosis in human Nthy-ori 3-1 cells assessed as increase in cleaved PARP level at 5 uM after 48 hrs by Western blot method; assay type: cell-based; conditions: nthy-ori 3-1, 48 h

Proto-oncogene tyrosine-protein kinase receptor Ret (Homo sapiens, UniProt P07949, V804M), sequence (P07949 29-1114 V804M limits assumed): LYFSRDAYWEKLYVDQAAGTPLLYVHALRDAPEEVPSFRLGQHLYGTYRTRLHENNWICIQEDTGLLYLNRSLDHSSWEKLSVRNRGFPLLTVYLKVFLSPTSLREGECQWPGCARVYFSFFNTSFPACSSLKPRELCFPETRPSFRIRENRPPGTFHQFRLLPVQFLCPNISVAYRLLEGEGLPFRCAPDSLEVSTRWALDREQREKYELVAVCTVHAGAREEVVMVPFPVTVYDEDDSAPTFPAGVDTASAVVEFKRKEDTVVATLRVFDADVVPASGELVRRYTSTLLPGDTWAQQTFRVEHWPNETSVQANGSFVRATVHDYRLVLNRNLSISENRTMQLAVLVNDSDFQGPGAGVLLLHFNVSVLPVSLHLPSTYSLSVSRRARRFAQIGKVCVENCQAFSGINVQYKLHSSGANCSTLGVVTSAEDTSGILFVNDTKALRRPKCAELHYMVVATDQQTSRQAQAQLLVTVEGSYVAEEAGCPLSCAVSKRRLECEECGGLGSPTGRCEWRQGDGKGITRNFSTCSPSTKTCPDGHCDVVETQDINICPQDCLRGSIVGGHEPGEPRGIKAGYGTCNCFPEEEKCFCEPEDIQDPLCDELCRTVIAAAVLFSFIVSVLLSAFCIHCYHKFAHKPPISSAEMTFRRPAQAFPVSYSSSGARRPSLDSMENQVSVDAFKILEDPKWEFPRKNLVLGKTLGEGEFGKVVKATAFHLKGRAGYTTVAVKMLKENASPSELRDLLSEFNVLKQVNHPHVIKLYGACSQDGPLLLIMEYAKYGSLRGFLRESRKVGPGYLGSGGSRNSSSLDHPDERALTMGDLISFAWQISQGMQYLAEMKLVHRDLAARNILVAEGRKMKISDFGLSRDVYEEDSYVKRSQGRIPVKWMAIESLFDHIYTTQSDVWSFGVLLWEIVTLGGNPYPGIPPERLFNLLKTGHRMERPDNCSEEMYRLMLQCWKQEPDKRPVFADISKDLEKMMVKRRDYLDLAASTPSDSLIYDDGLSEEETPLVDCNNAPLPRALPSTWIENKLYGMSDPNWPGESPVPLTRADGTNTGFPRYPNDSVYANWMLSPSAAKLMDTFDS
T1 sequence (P07949 whole entry): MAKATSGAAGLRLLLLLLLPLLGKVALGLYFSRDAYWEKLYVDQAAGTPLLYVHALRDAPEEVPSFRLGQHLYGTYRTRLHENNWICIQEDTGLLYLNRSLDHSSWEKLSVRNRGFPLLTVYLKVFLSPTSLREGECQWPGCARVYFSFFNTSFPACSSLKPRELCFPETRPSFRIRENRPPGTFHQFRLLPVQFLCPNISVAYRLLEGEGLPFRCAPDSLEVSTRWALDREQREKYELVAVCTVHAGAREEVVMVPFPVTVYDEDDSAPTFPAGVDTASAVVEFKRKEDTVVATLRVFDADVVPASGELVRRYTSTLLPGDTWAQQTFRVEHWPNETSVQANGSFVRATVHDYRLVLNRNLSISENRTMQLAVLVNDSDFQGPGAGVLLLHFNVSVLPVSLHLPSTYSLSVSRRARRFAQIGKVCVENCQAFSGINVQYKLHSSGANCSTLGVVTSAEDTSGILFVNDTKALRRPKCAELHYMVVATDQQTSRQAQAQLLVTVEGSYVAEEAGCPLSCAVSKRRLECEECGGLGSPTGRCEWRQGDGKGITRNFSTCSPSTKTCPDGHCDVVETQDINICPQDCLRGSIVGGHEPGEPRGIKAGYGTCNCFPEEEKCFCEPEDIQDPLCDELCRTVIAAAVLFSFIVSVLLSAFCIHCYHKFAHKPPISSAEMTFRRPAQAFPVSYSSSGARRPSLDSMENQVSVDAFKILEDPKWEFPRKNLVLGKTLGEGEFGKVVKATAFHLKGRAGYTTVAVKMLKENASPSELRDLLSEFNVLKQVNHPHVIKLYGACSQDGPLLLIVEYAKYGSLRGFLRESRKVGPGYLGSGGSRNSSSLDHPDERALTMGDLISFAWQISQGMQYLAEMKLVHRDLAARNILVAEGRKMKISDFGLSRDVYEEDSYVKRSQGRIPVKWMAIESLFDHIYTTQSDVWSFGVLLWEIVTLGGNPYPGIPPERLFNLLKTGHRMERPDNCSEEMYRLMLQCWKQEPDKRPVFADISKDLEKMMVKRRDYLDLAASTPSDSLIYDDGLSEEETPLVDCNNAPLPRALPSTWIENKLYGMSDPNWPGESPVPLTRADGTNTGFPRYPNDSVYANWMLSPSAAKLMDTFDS
Proto-oncogene tyrosine-protein kinase receptor Ret (Homo sapiens), P07949 [V804M], sequence (P07949 whole entry V804M): as the sequence (P07949 whole entry) above, with V804M counted along it
Proto-oncogene tyrosine-protein kinase receptor Ret (Homo sapiens), P07949 [C634W], sequence (P07949 whole entry C634W): as the sequence (P07949 whole entry) above, with C634W counted along it

## CC(C)c1cc(-c2nn(C(C)C)c3ncnc(N)c23)no1
[1]
  remaining at 0.25 h, 1 µM: 5.1%
[2]
  remaining at 0.5 h, 1 µM: 4.1%
[3]
  remaining at 0.25 h, 1 µM: 29%
[4]
  remaining at 0.5 h, 1 µM: 4.6%
[5]
  remaining at 0.25 h, 1 µM: 3.8%

## CC(C)n1nc(-c2cc(-c3ccccc3)on2)c(C(N)=O)c1N
[1]
  remaining at 0.25 h, 1 µM: 60.8%
[6]
  IC50: 0.236 µM

## CC(C)n1nc(-c2ccon2)c2c(N)ncnc21
[1]
  remaining at 0.25 h, 1 µM: 2.6%

## CC(C)n1nc(-c2cc(-c3ccsc3)on2)c(C(N)=O)c1N
[7]
  GI50: > 10 µM
[1]
  remaining at 0.25 h, 1 µM: 11.8%
[6]
  IC50: 0.162 µM
[8]
  GI50: > 10 µM
[9]
  GI50: > 10 µM
[10]
  IC50: 2.9 µM
[11]
  GI50: > 10 µM
[12]
  GI50: > 10 µM

## CCc1cc(-c2nn(C(C)C)c(N)c2C(N)=O)no1
[1]
  remaining at 0.25 h, 1 µM: 15.1%
[6]
  IC50: 0.631 µM

## CC(C)n1nc(-c2cc(-c3ccccn3)on2)c(C(N)=O)c1N
[1]
  remaining at 0.25 h, 1 µM: 49%
[6]
  IC50: 4.8 µM

## CC(C)n1nc(-c2coc(C3CC3)n2)c2c(N)ncnc21
[1]
  remaining at 0.25 h, 1 µM: 2.8%
[6]
  IC50: 0.139 µM

## CC(C)n1nc(-c2cc(C3CC3)on2)c(C(N)=O)c1N
[7]
  GI50: > 10 µM
[1]
  remaining at 0.25 h, 1 µM: 62.5%
[2]
  remaining at 0.5 h, 1 µM: 69%
[6]
  IC50: 0.044 µM
[13]
  Activity: Non-Toxic
[8]
  GI50: 6.98 µM
[9]
  GI50: 0.87 µM
[3]
  remaining at 0.25 h, 1 µM: 73%
[4]
  remaining at 0.5 h, 1 µM: 45.1%
[10]
  IC50: 0.252 µM
[11]
  GI50: 1.66 µM
[12]
  GI50: > 10 µM
[5]
  remaining at 0.25 h, 1 µM: 70%

## Cc1ccc(-c2cc(-c3nn(C(C)C)c(N)c3C(N)=O)no2)cc1
[1]
  remaining at 0.25 h, 1 µM: 61.8%
[6]
  IC50: 1.66 µM

## CC(C)n1nc(-c2cc(-c3ccc(F)cc3)on2)c(C(N)=O)c1N
[1]
  remaining at 0.25 h, 1 µM: 85.2%
[6]
  IC50: 0.416 µM

## CC(C)n1nc(-c2cc(-c3cccs3)on2)c(C(N)=O)c1N
[7]
  GI50: > 10 µM
[1]
  remaining at 0.25 h, 1 µM: 32.1%
[6]
  IC50: 0.078 µM
[8]
  GI50: > 10 µM
[9]
  GI50: > 10 µM
[10]
  IC50: 1.22 µM
[11]
  GI50: > 10 µM
[12]
  GI50: > 10 µM

## CC(C)c1cc(-c2nn(C(C)C)c(N)c2C(N)=O)no1
[1]
  remaining at 0.25 h, 1 µM: 51.6%
[6]
  IC50: 1.26 µM

## CC(C)n1nc(-c2cc(C(C)(C)C)on2)c(C(N)=O)c1N
[1]
  remaining at 0.25 h, 1 µM: 78%
[6]
  IC50: 2.22 µM

## COc1cc2nccc(Oc3ccc(NC(=O)C4(C(=O)Nc5ccc(F)cc5)CC4)cc3)c2cc1OC [CABOZANTINIB]
[7]
  GI50: 2.92 µM
[8]
  GI50: 0.74 µM
[9]
  GI50: 0.07 µM
[11]
  GI50: 0.26 µM
[12]
  GI50: > 10 µM
[14]
  Activity: Toxic

## CC(C)n1nc(-c2cc(C3CCCCC3)on2)c(C(N)=O)c1N
[1]
  remaining at 0.25 h, 1 µM: 40.6%
[6]
  IC50: 2.69 µM

## CC(C)n1nc(-c2cc(Cc3ccccc3)on2)c(C(N)=O)c1N
[1]
  remaining at 0.25 h, 1 µM: 54.6%
[6]
  IC50: 1.64 µM

## Nc1ncnc2[nH]nc(-c3cc(C4CC4)on3)c12
[1]
  remaining at 0.25 h, 1 µM: 1.4%

## CC(C)n1nc(-c2cc(-c3cccnc3)on2)c(C(N)=O)c1N
[1]
  remaining at 0.25 h, 1 µM: 86.7%
[6]
  IC50: 3.39 µM
